We go through 3 molecules from patent US10968183B2, “Small molecule FIEL1 inhibitor in inflammatory and fibrotic lung injury” (UNIVERSITY OF PITTSBURGH—OF THE COMMONWEALTH SYSTEM OF …, priority 2015, dated 2021).

In assay [1] the test system is α-SMA expression in MRC5 cells. Briefly: α-SMA expression in MRC5 cells co-treated with TGFβ. It is filed as cell-based, human. The settings on record: Homo sapiens; MRC5 cells, TGFβ 2 ng/ml, 18 h; FIG. 15D; read-out: IC50 for decrease of α-SMA expression. Here is the method:
(§1) FIG. 15A. Diagram of the BC-1485 synthesis process. FIGS. 15B-15C. Docking studies of the lead compound, BC-1485, interacting with the FIEL1-HECT domain. FIG. 15D. MRC5 cells were treated with the compound at various doses; cells were also co-treated with TGFβ at 2 ng/ml. 18 h later, cells were collected and assayed for α-SMA expression. FIG. 15E. MRC5 cells were seeded in 35 mm glass bottom dishes before co-treatment with TGFβ at 2 ng/ml and BC-1480 or BC1485 at 5μM. FIG. 15F. PIAS4 protein half-life determination after BC-1480 or BC1485 treatment at 5μM for 18 h. FIG. 15G. PIAS4 and KIAA0317 mRNA analysis after BC1485 treatment for 18 h.
MLE cells were cultured in Dulbecco's Modified Eagle Medium-F12 (Gibco) supplemented with 10% fetal bovine serum (DMEM-10). 293T cells were cultured in Dulbecco's Modified Eagle Medium (Gibco) supplemented with 10% fetal bovine serum (DMEM-10). MRC5 cells were cultured in Eagle's Minimum Essential Medium (Gibco) supplemented with 10% fetal bovine serum (EMEM-10). For protein expression in MLE cells, nucleofection was used following Amaxa's protocol. For protein overexpression in 293T cells, Fugene6HD transfection reagents were used following the manufacturer's protocol. For protein expression in MRC5 cells, MRC-5 Cell Avalanche™ Transfection Reagent was used following manufacturer's protocol. Cells were treated with TGFβ at 0-2 ng/ml for 0-18 h. For FIEL1, PKCξ, or GSK3β knockdown studies in cells, scramble shRNA, KIAA0317, PKCξ, or GSK3β shRNA were used to transfect cells for 48 h. For drug treatment, compounds were solubilized in DMSO before being added to the cells for up to 18 h. Cell lysates were prepared by brief sonication in 150 mM NaCl, 50 mM Tris, 1.0 mM EDTA, 2 mM dithiothreitol, 0.025% sodium azide, and 1 mM phenylmethylsulfonyl fluoride (Buffer A) at 4° C. For half-life study, MLE cells were exposed to cycloheximide (40 μg/ml) in a time dependent manner for up to 8 h. Cells were then collected and immunoblotted.

The next assay has as its target T1, FIEL1/PIAS4 interaction (Homo sapiens, UniProt O15033).
T1 construct: made in house; host or cells: 293T cells (FIEL1)
T1 sequence (O15033 1-789 isoform O15033-2): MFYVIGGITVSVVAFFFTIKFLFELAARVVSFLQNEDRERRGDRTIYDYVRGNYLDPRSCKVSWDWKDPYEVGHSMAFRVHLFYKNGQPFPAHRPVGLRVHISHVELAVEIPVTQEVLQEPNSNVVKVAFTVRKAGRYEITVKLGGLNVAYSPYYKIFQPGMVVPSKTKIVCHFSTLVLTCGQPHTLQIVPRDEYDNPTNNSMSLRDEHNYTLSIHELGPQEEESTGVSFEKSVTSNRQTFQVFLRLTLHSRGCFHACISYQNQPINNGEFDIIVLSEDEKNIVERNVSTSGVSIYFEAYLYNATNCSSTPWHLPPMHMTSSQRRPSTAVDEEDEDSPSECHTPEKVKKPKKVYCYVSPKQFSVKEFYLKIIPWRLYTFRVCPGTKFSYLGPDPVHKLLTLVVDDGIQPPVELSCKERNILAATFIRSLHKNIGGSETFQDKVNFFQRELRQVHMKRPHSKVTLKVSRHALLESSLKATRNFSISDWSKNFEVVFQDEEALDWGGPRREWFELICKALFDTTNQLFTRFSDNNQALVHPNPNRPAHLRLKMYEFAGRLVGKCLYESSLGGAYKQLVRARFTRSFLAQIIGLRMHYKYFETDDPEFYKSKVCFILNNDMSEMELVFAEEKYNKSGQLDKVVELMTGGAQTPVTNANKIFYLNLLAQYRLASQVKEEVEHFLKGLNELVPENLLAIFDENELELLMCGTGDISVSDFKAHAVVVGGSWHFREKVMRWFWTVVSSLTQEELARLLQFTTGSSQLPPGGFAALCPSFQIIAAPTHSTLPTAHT
Put plainly: In vitro drug binding assay: PIAS4 pull-down on drug-bound FIEL1 beads. The settings on record: FIG. 7. How it is done: (§2) FIG. 7A. […] FIG. 7B. Structures of the BC-1480 backbone and lead compound BC-1485. FIG. 7C. FIEL1 protein was HIS-purified from FIEL1 expression in 293T cells using cobalt beads. Beads were then extensively washed prior to exposure to BC-1480 or BC-1485 at different concentrations (10^−4 to 100 μM). Purified PIAS4 protein was then incubated with drug-bound FIEL1 beads overnight. Beads were washed, and proteins were eluted and resolved on SDS-PAGE. The relative amounts of PIAS4 detected in the pull-downs was normalized to loading and quantified (n=2). FIG. 7D. MLE cells were exposed to BC-1480 or BC-1485 at various concentrations for 18 h. Cells were then collected and immunoblotted. FIGS. 7E-J. C57BL/6J mice were administered with bleomycin (0.05 U) for 7-21 days. Compounds BC-1480 and BC-1485 were given to mice through drinking water with an estimated dose of 5 mg/kg/d. Mice were euthanized, and lungs were lavaged with saline, harvested, and then homogenized. Lavage proteins, CXCL1, and total cell count were measured in FIGS. 7E-G. H. Survival studies of mice that were given bleomycin and compound treatments. Mice were carefully monitored over time; moribund, preterminal animals were immediately euthanized and recorded as deceased. Kaplan-Meier survival curves were generated using SPSS software (p<0.01 compared to Vehicle). Vehicle: n=24, BC-1480: n=13, BC-1485: n=12. FIG. 7I. Hydroxyproline contents were measured in lungs from 7, 14, and 21d after bleomycin challenge. FIG. 7J. Trichrome staining was performed on lung samples from E. Original magnification, ×10. *p<0.05 compared to Vehicle (t-test). Data are an average of two experiments (FIGS. 7E-J, 4-8 mice/group)
FIEL1 protein was HIS-purified from FIEL1 expression 293T cells using cobalt beads. Beads were then extensively washed prior to exposure to BC-1480 or BC-1485 at different concentrations (10^−4 to 100 μM). Purified recombinant PIAS4 protein was then incubated with drug-bound FIEL1 beads overnight. […] The relative amounts of PIAS4 detected in the pull-downs were normalized to loading and quantified.

In assay [2] the test system is bleomycin-induced lung injury in C57BL/6J mice. Put plainly: Bleomycin lung fibrosis model in mice. It is filed as in vivo. The settings on record: bleomycin 0.05 U i.t., 7-21 days; estimated 5 mg/kg/d. Here is the method:
as §2
C57BL/6J mice were administered i.t. with bleomycin (0.05 U) for 7-21 days. Compounds BC-1480 and BC-1485 were given to mice through drinking water with an estimated dose of 5 mg/kg/d. Mice were then euthanized, and lungs were lavaged with saline, harvested, and then homogenized. Lavage IL-6 was measured in (FIG. 16A). Lavage cells were also processed for Wright-Giemsa stain; Lavage macrophages, neutrophils and lymphocytes were counted and graphed (FIGS. 16B-16D). H&E staining was performed on lung samples from A. Original magnification, ×10. *p<0.05 compared to Vehicle (t test). Data are an average of two experiments (A-E, 4-8 mice/group).
Murine lungs were dried and weighed prior to digestion with HCl. Hydroxyproline concentrations were measuring using methods previously described in Kesava Reddy et al., Clinical Biochemistry, 29(3): 225-229 (1996), and Neuman et al., J. of Biol. Chem., 184(1): 299-306 (1950). Hydroxyproline content was normalized to dry lung weight.
All procedures were approved by the University of Pittsburgh Institutional Animal Care and Use Committee. For fibrosis studies, male C57BL/6J mice were deeply anesthetized using a ketamine/xylazine mixture, and the larynx was well visualized under a fiber optic light source before endotracheal intubation with a 3/400 24-gauge plastic catheter. 10^7 CFU of lentivirus encoding genes for Empty (E), FIEL1, CON shRNA, or KIAA0317 shRNA was given i.t. for 144 h before administration of bleomycin (0.02 U˜0.05 U i.t.) for up to 21 days. Animals were euthanized and assayed for BAL protein, cell count, cytokines, and lung infiltrates. Survival studies were performed on mice that were given bleomycin (0.02 U˜0.05 U i.t.). Mice were carefully monitored over time; moribund, preterminal animals were immediately euthanized and recorded as deceased. For drug studies, mice were deeply anesthetized as above. Bleomycin (0.05 U i.t.) was given i.t. before BC-1480 or BC-1485 (5 mg/kg/d) was administered to the mice through their drinking water. 7-21d later, animals were euthanized and analyzed as above.

Another assay deals with PIAS4. Briefly: PIAS4 protein half-life study (cycloheximide) in MLE cells. It is filed as cell-based, murine. The settings on record: addition of proteasomal or lysosomal inhibitor; FIG. 9B.
From the text: FIG. 9A. PIAS4 protein half-life study in MLE cells transfected with Empty plasmid or Ubiquitin plasmid. FIG. 9B. PIAS4 protein half-life study with MG132 or Leupeptin. FIG. 9C. Immunoblots showing levels of PIAS4 proteins and V5 after ectopic FIEL1 or UBE3B plasmid expression. FIG. 9D. Immunoblots showing levels of FIEL1 proteins after ectopic FIEL1 plasmid expression in MLE, HeLa, and 293T cells. FIG. 9E. Immunoblots showing levels of PIAS4 proteins and V5 after ectopic FIEL1 plasmid expression in HeLa and 293T cells. FIG. 9F. MLE cells were transfected with an inducible control or FIEL1 plasmid under control of exogenous doxycycline. Cells were treated with doxycycline in a dose dependent manner. Cells were then collected and cell lysates were immunoblotted for FIEL1 and PIAS4. FIG. 9G. MRC5 cells were exposed to TGFβ for 24 h before being assayed for PIAS4 and FIEL1 protein half-lives.
as §1
MLE cells were cultured in Dulbecco's Modified Eagle Medium-F12 (Gibco) supplemented with 10% fetal bovine serum (DMEM-10). 293T cells were cultured in Dulbecco's Modified Eagle Medium (Gibco) supplemented with 10% fetal bovine serum (DMEM-10). MRC5 cells were cultured in Eagle's Minimum Essential Medium (Gibco) supplemented with 10% fetal bovine serum (EMEM-10). For protein expression in MLE cells, nucleofection was used following Amaxa's protocol. For protein overexpression in 293T cells, Fugene6HD transfection reagents were used following the manufacturer's protocol. […]

Molecules are shown by their SMILES. Peptide text beside a SMILES is read from it. * marks the point of attachment. Cbz = O=C(OCc1ccccc1)*

Take `O=C(O)c1ccc(NS(=O)(=O)c2ccc3[nH]c(=O)[nH]c3c2)cc1` [BC-1480, 4-(2-oxo-2,3-dihydro-1H-benzo[d]imidazole-5-sulfonamido)benzoic acid]: the half-inhibitory concentration (IC50) in assay [1] was roughly 4 µM. Also, on FIEL1/PIAS4 interaction, the “inhibition of FIEL1 and PIAS4 interaction” value was “inhibition of FIEL1 and PIAS4 interaction”. Also, the “lung (pulmonary) fibrosis” value in assay [2] was “inhibition of pulmonary fibrosis”. For `CC(=O)N[C@@H](CC(C)C)C(=O)N[C@@H](CC(C)C)C(=O)N[C@H](C=O)CCCNC(=N)N` [Leupeptin], the PIAS4 protein half-life entry in the assay with PIAS4 is reported as “an effect unobserved”.

In the case of `CC(C)C[C@@H](C=O)NC(=O)[C@H](CC(C)C)NC(=O)[C@H](CC(C)C)NC(=O)OCc1ccccc1` [MG132] (Cbz-Leu-Leu-Leu-aldehyde), the PIAS4 protein half-life entry in the assay with PIAS4 is on record as “significantly increased”.
